Here are results for four molecules from patent publication US20240390451A1, “MODIFIED TRIPEPTIDES FOR USE IN THE TREATMENT OF A NON-ENVELOPED VIRUS INFECTION” (PHARMA HOLDINGS AS, priority 2021, published 2024).

Series [1] deals with HeLaM cells. The note with it: dilution at which cytotoxicity on HeLaM cells was observed, without virus, after filtration, 1% LTX-7 (w/v) in PBS or 0.25% SDS.
Method: A parallel test where the same procedure was carried out in the absence of virus was included to determine any residual cytotoxic effect of LTX-7 on the assay cells.
The subject of series [2] is Rhinovirus (HRV-A60), Strain: 2268-CV37. In words: Antiviral activity of LTX-7 against Rhinovirus: 1 hour incubation, filtration, TCID50 endpoint dilution on HeLaM cells. Format: cell-based, Human Rhinovirus 60. The conditions noted are these: for % Reduction: as compared to the PBS control; for % Reduction / Log decrease / Rounded %: contact time 1 hour, 1% LTX-7 or 0.25% SDS; for TCID50/ml ± SEM: average virus titre recovered, contact time 1 hour at RT, 1% LTX-7 (w/v) in PBS or 0.25% SDS in PBS; for Log decrease: decrease in infectivity as compared to the PBS control; for Rounded %: rounded % reduction as compared to the PBS control. Here is the method:
The Rhinovirus used was from BEI Resources: Rhinovirus (HRV-A60), Strain: 2268-CV37 (BEI Resources Catalogue Number NR-51447).
To test whether LTX-7 has antiviral activity against Rhinovirus, 5×10^5 infectious units of Rhinovirus (40 μl) were incubated with four volumes of 1% LTX-7 (w/v) dissolved in PBS (160 μl) or a PBS (Phosphate-buffered saline) negative control. As a positive control, a buffer containing 0.25% SDS (Sodium dodecyl sulphate) in PBS was tested in parallel. Each sample and the PBS control were tested in triplicates.
After 1 hour at room temperature (RT), the incubation was stopped by adding an excess of cold assay media (5 ml), and the formulation was physically separated from the virus through a filter (Sartorius VivaSpin 6, 100,000 MWCO, PES (Sartorius, VS0642)) to reduce cytotoxicity on the assay cells. The assay media was DMEM (Gibco 61965-026) supplemented with 2% FBS (Gibco 10500-064), 20 mM Hepes (Gibco 15630-056) and 1× p/s (Gibco 15070063).
The starting solution for the serial dilution (i.e. the neat (or undiluted) solution or 10^0 solution) was obtained by re-suspending the virus that was separated via the filtration step in 1 ml of assay media. […] Appropriate controls were also performed.

Series [3] relates to HeLa cells. The note with it: dilution at which cytotoxicity on HeLa cells was observed, without virus, after filtration, 1% LTX-109 (w/v) in PBS or 0.25% SDS.
Method: Infectious virus was quantified through a serial dilution of the filtrate (a series of ten-fold dilutions) on monolayers of HeLa cells in microtitre plates (HeLa cells are human cells capable of displaying a cytopathic effect (CPE) upon viral infection). For each dilution of the virus in the dilution series, eight wells of the microtitre plate were tested (i.e. each dilution was applied to eight separate wells, each well containing a HeLa cell monolayer). Appropriate controls were also performed. […] The TCID50 (TCID50/ml) assay (Tissue Culture Infectious Dose 50 assay) is a type of endpoint dilution assay that is well known in the art and routinely used to quantitatively measure virus titres. TCID50/ml provides a measure of infectious units of virus/ml. “/ml” refers to /ml of the starting solution (i.e. neat/undiluted solution) mentioned above. A parallel test where the same procedure was carried out in the absence of virus was included to determine any residual cytotoxic effect of the formulation on the assay cells.
For series [4], the system named is Rhinovirus 60, 2268-CV37. In words: Antiviral activity of 3% LTX-109 against Rhinovirus: 1 hour incubation, dilution in media, TCID50 endpoint dilution on HeLa cells. Format: cell-based, Human Rhinovirus 60. The conditions noted are these: for Log decrease: decrease in infectivity as compared to the PBS control; for Log decrease / Percentage: 1 hour; for Log decrease / Log / Percentage: 3% LTX-109 or 0.25% SDS; for Log: log of recovered virus titre after 1 hour incubation; for Percentage: reduction in infectivity as compared to the PBS control. Here is the method: (§1) The Rhinovirus used was from BEI Resources: Rhinovirus 60, 2268-CV37 (Catalogue No. NR-51447).
To test whether 3% LTX-109 (w/v) has antiviral activity against Rhinovirus, 9×10^5 infectious units of Rhinovirus (40 μl) were incubated with four volumes of 3% LTX-109 dissolved in PBS (160 μl), alongside a PBS (Phosphate-buffered saline) control and a 0.25% SDS (Sodium dodecyl sulphate) positive control. The treatments were performed in triplicate.
After 1 hour, the incubation was stopped by adding 50 μl of mixture to 5 ml of media. The assay media was DMEM (Gibco 61965-026) supplemented with 2% FBS (Gibco 10500-064), 20 mM Hepes (Gibco 15630-056) and 1× p/s (Gibco 15070063).
(§2) Appropriate controls were also performed.

In series [5] the test system is HeLa cells. The note with it: dilution at which cytotoxicity on HeLa cells was observed, without virus, after dilution, 3% LTX-109 (w/v) in PBS or 0.25% SDS.
Method: A parallel test where the same procedure was carried out in the absence of virus was included to determine any residual cytotoxic effect of the formulation on the assay cells.
Series [6] relates to Human Rhinovirus 14, strain 1059. In words: Antiviral (virucidal) activity of 1% LTX-109 against Human Rhinovirus 14: 1 hour incubation, filtration, TCID50 on HeLaM cells. Format: cell-based. The conditions noted are these: for TCID50/ml ± SEM: average virus titre recovered, contact time 1 hour at RT, 1% LTX-109 (triplicate) or 2.5% glutaraldehyde in PBS (single replicate); for Log decrease: decrease in infectivity as compared to the PBS control; for Log decrease / % Reduction: contact time 1 hour, 1% LTX-109 or 2.5% glutaraldehyde; for % Reduction: reduction in Rhinovirus 14 infectivity as compared to the PBS control. Here is the method: The virus used was from ATCC: Human Rhinovirus 14, strain 1059 (ATCC VR-284, lot number 70049530).
To test whether 1% LTX-109 has virucidal activity against Human Rhinovirus 14, 4×10^7 infectious units of Human Rhinovirus 14 in 40 μl were incubated with four volumes (160 μl) of 1% LTX-109 or a PBS negative control. As a positive control, a buffer containing 2.5% glutaraldehyde in PBS was tested in parallel. Both LTX-109 and negative control were tested in triplicates. The positive control was tested in a single replicate.
After 1 hour at room temperature (RT), the incubation was stopped by adding an excess of cold assay media (5 ml), and the formulation was physically separated from the virus through a filter (Sartorius VivaSpin 6, 100,000 MWCO, PES) to reduce cytotoxicity on the assay cells. The assay media was DMEM (Gibco 10566016) supplemented with 2% FBS (Gibco 10500064), 20 mM HEPES (Gibco 15630056) and 1× PenStrep (Gibco 15070063).
Concentrated virus was re-suspended in 1 ml of assay media and infectious virus was quantified through a serial dilution (10^−1 to 10^−8) on a monolayer of HeLaM cells plated the day before at 8,000 cells/100 μl/well. […] Specifically, on a 96 well plate, 225 μl of media were placed in each well of 4 columns (32 wells in total). In the 4 wells of the top row (row A), 25 μl of re-suspended virus was added and mixed. With a multichannel pipette, 25 μl of media was then taken from the 4 wells in row A to the next 4 wells in row B, and then from row B to row C, and so on until row H, creating a serial dilution (10^−1 to 10^−8). 200 μl from each well was then added to separate wells containing a monolayer of HeLa M cells. Appropriate controls were also performed.

Series [7] deals with HeLaM cells. The experiment in a line: Parallel test without virus: residual cytotoxic effect of LTX-109 on the assay cells (Example 4). The conditions noted are these: dilution at which cytotoxicity on HeLaM cells was observed, after filtration and re-suspension, 1% LTX-109 or 2.5% glutaraldehyde in PBS. As for the experimental part: A parallel test where the same procedure was carried out in the absence of virus was included to determine any residual cytotoxic effect of LTX-109 on the assay cells.

Series [8] deals with Rhinovirus 60, 2268-CV37. In words: Antiviral activity of 1% LTX-109 against Rhinovirus: 1 hour incubation, filtration, TCID50 endpoint dilution on HeLa cells. The class given is cell-based, Human Rhinovirus 60. The conditions noted are these: for TCID50/ml ± SEM: average virus titre recovered after 1 hour incubation, 1% LTX-109 (w/v) in PBS or 0.25% SDS, triplicate; for Log decrease: decrease in infectivity as compared to the PBS control; for Log decrease / Percentage: 1 hour; for Log decrease / Log / Percentage: 1% LTX-109 or 0.25% SDS; for Log: log of recovered virus titre after 1 hour incubation; for Percentage: reduction in infectivity as compared to the PBS control. Here is the method:
as §1
To test whether 1% LTX-109 (w/v) has antiviral activity against Rhinovirus, 2.24×10^5 infectious units of Rhinovirus (40 μl) were incubated with four volumes of 1% LTX-109 dissolved in PBS (160 μl), alongside a PBS (Phosphate-buffered saline) control and a 0.25% SDS (Sodium dodecyl sulphate) positive control. The treatments were performed in triplicate.
After 1 hour, the incubation was stopped by adding an excess of media, and the liquid was filtered through a filter (Sartorius VivaSpin 6) to separate the virus in order to reduce cytotoxicity on the assay cells. The assay media was DMEM (Gibco 61965-026) supplemented with 2% FBS (Gibco 10500-064), 20 mM Hepes (Gibco 15630-056) and 1×p/s (Gibco 15070063).
as §2

Setting [9] is: listed as POSITIVE CONTROL (SDS), sulphate.

“And” between values parts separate entries of the source, which are not always exact repeats. Identical values can stand only once. Like-named read-outs stand apart in the source and are kept apart here.

Regarding `N=C(N)NCCCC(N)C(=O)NC(Cc1ccc(-c2ccc3ccccc3c2)cc1)C(=O)NC(CCCNC(=N)N)C(=O)NCCc1ccccc1` (stereo not drawn) [LTX-7, Arg-Phe(4-(2-Naphthyl))-Arg-NH—CH2—CH2-Ph], the Cytotoxicity entry in series [1] was “observed (only) with the neat application and only cytotoxic before any serial dilutions are performed and Neat”. Further, in series [2], the “% Reduction” value was 95.791%; the “TCID50/ml ± SEM” value is 3.86E+03 TCID50/ml and 3.86E+03 ± 1.14E+03 TCID50/ml; the Log decrease was 1.33 logs.
For `CC(C)(C)c1cc(C(C)(C)C)c2[nH]c(C(C)(C)C)c(CC(NC(=O)C(N)CCCNC(=N)N)C(=O)NC(CCCNC(=N)N)C(=O)NCCc3ccccc3)c2c1` (stereo not drawn) [LTX-109], the Cytotoxicity result in series [3] was “only cytotoxic before any serial dilutions are performed”; in series [3] (listed as 1% LTX-109), “observed (only) with the neat application and Neat”; in series [5] it was “only cytotoxic before any serial dilutions are performed”; in series [5] (listed as 3% LTX-109), “Neat”; in series [5] (listed as 3% formulation), “observed (only) with the neat application”; in series [7], 10^−1. Further, the Log decrease in series [4] amounted to 1.9 logs; in series [6], 1.05 logs; in series [8] it was 1.9 logs. Besides, the Log was 2.3 in series [4] and 3.7 in series [8]. The Percentage in series [4] is listed as 98.87%; in series [8], 98.89%. Besides, the “TCID50/ml ± SEM” value in series [6] was 1.80E+06 TCID50/ml; in series [6] (listed as 1% LTX-109) it was 1.80E+06 (±3.08 ± 05) TCID50/ml; in series [8], 4.8E+03 TCID50/ml and 4.80E+03 ± 8.21E+02 TCID50/ml. Besides, the “% Reduction” value in series [6] was 91.2%; in series [6] (listed as 1% LTX-109), 91.2% and 91.17%.
`O=CCCCC=O` [Positive Control, glutaraldehyde, reference compound]: in series [6], the “TCID50/ml ± SEM” value is reported as 3.75E+01 TCID50/ml, the “Log decrease” value worked out at 5.74 logs and the “% Reduction” value came to 99.9998%. The “% Reduction” value in series [6] (listed as 2.5% glutaraldehyde in PBS) was roughly 99.9%. In series [7], the Cytotoxicity entry was “Neat”.
For `CCCCCCCCCCCCOS(=O)(=O)[O-].[Na+]` [SDS, Sodium dodecyl sulphate, reference compound], the Cytotoxicity result was “Neat” in series [3], “Neat” in series [5], “Neat” in series [1] (setting [9]) and “observed (only) with the neat application” in series [1] (sulphate). Moreover, the “TCID50/ml ± SEM” value is on record as 1.58E+01 TCID50/ml in series [4] (average virus titre recovered after 1 hour incubation, 3% LTX-109 (w/v) in PBS or 0.25% SDS, triplicate); 1.58E+01 (SEM ND) TCID50/ml in series [2] (setting [9]); 1.58E+01 TCID50/ml in series [2] (sulphate); 1.00E+02 TCID50/ml in series [8]. Also, the figures for the Log decrease in series [4], in series [2] and in series [8] were 3.0 logs, 3.67 logs and 3.6 logs, respectively. The Log came out at 1.2 in series [4] and 2.0 in series [8]. Further, the Percentage in series [4] is listed as 99.91%; in series [8] it was 99.98%. The “% Reduction” value in series [2] was found to be 99.983%. Further, the Rounded % in series [2] (setting [9]) was 99.9%; in series [2] (sulphate), roughly 99.9%.
